Reference: patent US20230137562A1, “TAU AGGREGATION INHIBITORS” (priority 2017, published 2023)
Ends that are not written are not given here. Peptide text beside a SMILES is read from it. TAMRA = tetramethyl rhodamine dye

B1: [TAMRA]-RRRRRRRRR-GGSGG-WRLKVRWW (peptide)
peptide: {TAMRA}-RRRRRRRRRGGSGGWRLKVRWW
B2: [TAMRA]-RRRRRRRRRR-GGSGG-WRIWIRYW (peptide)
peptide: {TAMRA}-RRRRRRRRRRGGSGGWRIWIRYW
B3: RRRRRRRRR-GGSGG-LFYLRLT (peptide)
peptide: RRRRRRRRRGGSGGLFYLRLT

target: His-Tau40P301L Tau (UniProt P10636-8 1-441); assay: cell-based or functional assay; conditions: not given
Sequence (P10636 other isoform, or with tags, fused parts or gaps limits assumed): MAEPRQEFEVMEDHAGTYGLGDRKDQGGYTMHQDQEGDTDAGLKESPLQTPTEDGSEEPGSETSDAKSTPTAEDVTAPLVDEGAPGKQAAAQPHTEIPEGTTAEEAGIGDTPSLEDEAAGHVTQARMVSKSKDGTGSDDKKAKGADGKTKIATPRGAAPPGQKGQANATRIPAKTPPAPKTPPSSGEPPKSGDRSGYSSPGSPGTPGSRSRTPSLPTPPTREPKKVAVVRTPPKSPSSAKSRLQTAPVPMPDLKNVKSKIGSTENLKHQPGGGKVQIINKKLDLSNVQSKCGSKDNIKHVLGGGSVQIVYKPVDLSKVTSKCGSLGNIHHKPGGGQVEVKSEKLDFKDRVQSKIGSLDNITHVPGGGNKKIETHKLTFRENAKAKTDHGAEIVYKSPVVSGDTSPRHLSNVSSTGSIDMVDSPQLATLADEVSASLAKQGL

IC50 (µM), Tau40 assay-Modified peptides (ThT) [µM]	Molecule
7.3	B1
12.6	B2

target: TauRD (P301S)-Nluc and TauRD (P301S)-Cluc split luciferase compliment pair (human, UniProt P10636-8 244-372; P10636-8 244-372); assay: cell-based or functional assay; conditions: not given
Sequence (P10636 561-689 P618S, chain 1 of 2): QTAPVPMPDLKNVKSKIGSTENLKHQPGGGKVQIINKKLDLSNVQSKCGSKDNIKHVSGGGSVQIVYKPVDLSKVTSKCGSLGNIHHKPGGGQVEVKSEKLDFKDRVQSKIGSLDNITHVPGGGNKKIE
Sequence (P10636 561-689 P618S, chain 2 of 2): as the sequence (P10636 561-689 P618S, chain 1 of 2) above

EC50 (µM), HEK cell assay, split luciferase complementation [µM]	Molecule
8.2	B1
4.1	B2
9.6	B3

target: T1, Tau40P301L protein (Homo sapiens, UniProt P10636, P618L); assay: biochemical; conditions: IC50 (μM), Tau40 assay
T1 construct: His; made in house; host or cells: E. coli BL21
Procedure: The following describes the experimental method used to evaluate the IC50 of Tau amyloid inhibition by the peptide inhibitors described above. The physical setup of inhibitor peptides in these dose responses is done automatically with an 8-span head on a BioMek3000 liquid handler into Costar optically 96-well clear bottom black plates. Inhibitor peptides are kept frozen at −80° C. in 100% dimethylsulfoxide (DMSO) solution at a concentration of 20 mM and thawed immediately before the assay. The Biomek makes two serial dilutions of a single inhibitor for a duplicate 6-point dose response curve. This is followed by addition a 5×reaction buffer. The final reaction buffer concentration in the assay is 50 mM MES, pH 6.8, 125 mM NaCl, 10 μM Heparin, 50 μM ThT. The Tau substrate is added by a 96-head Multimek liquid handler making a 4:10 dilution of Tau40P301L protein to which DTT is added directly before setting up the assay. The P301 L mutant of tau is associated with features of human tauopathies (Comb et al., supra; Lewis et al., Nature Genetics 25: 402-405 (2000)). The final concentrations of Tau40P301L and DTT in the assay is 2.5 μM and 5 mM, respectively. Amyloid formation is measured by monitoring Thioflavin T (ThT) fluorescence every 10 minutes with excitation and emission wavelengths of 440 and 485 nm using fluorescence plate readers. The assay plates are kept in the plate reader during the whole duration of the assay, and incubated at 37° C. with continuous shaking for 24 hours. Plate reader models Genios and Spectrafluor Plus produced by Tecan are used and data is acquired using Magellan software. The calculation of IC50 is done by an automatic algorithm developed using the R statistical programing language. Briefly, the algorithm uses data exported in excel format from the plate reader to average the cumulative ThT fluorescence for each inhibitor concentration in the 6-point dose response. The IC50 is calculated as the midpoint of a sigmoid curve fitted to the correlation of normalized ThT fluorescence and inhibitor concentration.

T1 sequence (P10636 1-441 isoform P10636-8 P301L): as the sequence (P10636 other isoform, or with tags, fused parts or gaps limits assumed) above

Molecule	IC50 [µM]
CC[C@H](C)[C@H](NC(=O)[C@H](CCCNC(=N)N)NC(=O)[C@@H](NC(=O)[C@H](Cc1c[nH]c2ccccc12)NC(=O)[C@@H](N)Cc1c[nH]c2ccccc12)[C@@H](C)CC)C(=O)N[C@@H](CCCNC(=N)N)C(=O)N[C@@H](Cc1ccc(O)cc1)C(=O)N[C@@H](Cc1c[nH]c2ccccc12)C(=O)N[C@@H](CC(C)C)C(=O)O [compound 65] (H-WWIRIRYWL-OH)	1.31
CC[C@H](C)[C@H](NC(=O)[C@H](CCCNC(=N)N)NC(=O)[C@@H](NC(=O)[C@@H](N)Cc1c[nH]c2ccccc12)[C@@H](C)CC)C(=O)N[C@@H](CCCNC(=N)N)C(=O)N[C@@H](Cc1ccc(O)cc1)C(=O)N[C@@H](Cc1c[nH]c2ccccc12)C(=O)O [compound 152] (H-WIRIRYW-OH)	2.6
CC[C@H](C)[C@H](NC(=O)[C@@H](N)CCCNC(=N)N)C(=O)N[C@@H](CCCNC(=N)N)C(=O)N[C@@H](CC(C)C)C(=O)N[C@@H](Cc1c[nH]c2ccccc12)C(=O)N[C@@H](Cc1ccc(O)cc1)C(=O)N[C@@H](Cc1c[nH]c2ccccc12)C(=O)O [compound 60] (H-RIRLWYW-OH)	8.01
CC[C@H](C)[C@H](NC(=O)[C@H](CCCNC(=N)N)NC(=O)[C@@H](N)Cc1c[nH]c2ccccc12)C(=O)N[C@@H](Cc1c[nH]c2ccccc12)C(=O)N[C@@H](C)C(=O)N[C@@H](CCCNC(=N)N)C(=O)N[C@@H](Cc1ccc(O)cc1)C(=O)N[C@@H](Cc1c[nH]c2ccccc12)C(=O)O [compound 163] (H-WRIWARYW-OH)	2.95

target: T2, Ac-VQIINK-NH2 (Homo sapiens, UniProt P10636); assay: Inhibition of VQIINK aggregation with peptide inhibitors (ThT); assay type: biochemical; conditions: not given
T2 construct: made in house; host or cells: chemical peptide synthesis
Procedure: The following describes the experimental method used to evaluate the IC50 of aggregation of VQIINK (SEQ ID NO:220) inhibition by the peptide inhibitors described above. The peptide sequence comprising Ac-VQIINK-NH2 (C-terminal amidated (SEQ ID NO: 220)) is prepared using the peptide synthetic method described above. The Ac-VQIINK-NH2 (SEQ ID NO: 220) is stored at 10 mM in 100% DMSO at −80° C., and an aliquot volume sufficient for a single aggregation assay plate is removed. The stock aggregation buffer (5×) is prepared with the following: 250 mM NaPhosphate (pH 8.0), 125 mM KCl, and 500 micromolar ThioflavinT (ThT). The aggregation assay is conducted with shaking, at room temperature, on a plate reader model FLX-800 by BioTek. Water for primary Ac-VQIINK-NH2 (SEQ ID NO: 220) dissolution is cooled to 4 degrees Celsius (7.245 milliliters). Buffer is added from the 5×stock (40 microliters, final volume in assay plate is 130 microliters, final buffer concentrations 50 millimolar NaPO4 (pH 8.0); 25 milllimolar KCl; and 100 micromolar ThioflavinT). The assay plate is cooled to 4 degrees Celsius. The Ac-VQIINK-NH2 (105 microliters (SEQ ID NO: 220)) is added to the chilled water (final volume of 7.350 milliliters), this is added into a pooled reservoir, and using a 96-channel robotic pipettor, 70 microliters diluted Ac-VQIINK-NH2 (SEQ ID NO: 220) is added to the assay plate to achieve a final concentration of 50 micromolar in a 200 microliter final assay volume (per well). Data is acquired using Magellan software. The calculation of IC50 is done by an automatic algorithm developed using the R statistical programing language. Briefly, the algorithm uses data exported in excel format from the plate reader to average the cumulative ThT fluorescence for each inhibitor concentration in the 6-point dose response. The IC50 is calculated as the midpoint of a sigmoid curve fitted to the correlation of normalized ThT fluorescence and inhibitor concentration.

Molecule	IC50 [µM]
CC[C@H](C)[C@H](NC(=O)[C@@H](N)CCCCN)C(=O)N[C@@H](CCCNC(=N)N)C(=O)N[C@@H](CC(C)C)C(=O)N[C@@H](Cc1ccc(O)cc1)C(=O)N[C@@H](Cc1c[nH]c2ccccc12)C(=O)N[C@@H](Cc1c[nH]c2ccccc12)C(=O)O [compound 194] (H-KIRLYWW-OH)	2.86
CC[C@H](C)[C@H](NC(=O)[C@H](CCCNC(=N)N)NC(=O)[C@@H](NC(=O)[C@H](Cc1c[nH]c2ccccc12)NC(=O)[C@@H](N)Cc1c[nH]c2ccccc12)[C@@H](C)CC)C(=O)N[C@@H](CCCNC(=N)N)C(=O)N[C@@H](Cc1ccc(O)cc1)C(=O)N[C@@H](Cc1c[nH]c2ccccc12)C(=O)N[C@@H](CC(C)C)C(=O)O [compound 65] (H-WWIRIRYWL-OH)	4.88
CC[C@H](C)[C@H](NC(=O)[C@H](Cc1c[nH]c2ccccc12)NC(=O)[C@@H](NC(=O)[C@H](CCCNC(=N)N)NC(=O)[C@@H](N)Cc1c[nH]c2ccccc12)[C@@H](C)CC)C(=O)N[C@@H](CCCNC(=N)N)C(=O)N[C@@H](CC(C)C)C(=O)N[C@@H](Cc1c[nH]c2ccccc12)C(=O)O [compound 202] (H-WRIWIRLW-OH)	3.97
CC[C@H](C)[C@H](NC(=O)[C@H](CCCNC(=N)N)NC(=O)[C@@H](NC(=O)[C@@H](N)Cc1c[nH]c2ccccc12)[C@@H](C)CC)C(=O)N[C@@H](CCCNC(=N)N)C(=O)N[C@@H](Cc1ccc(O)cc1)C(=O)N[C@@H](Cc1c[nH]c2ccccc12)C(=O)O [compound 152] (H-WIRIRYW-OH)	6.02
CC[C@H](C)[C@H](NC(=O)[C@H](CCC(N)=O)NC(=O)[C@@H](NC(=O)[C@H](CCCNC(=N)N)NC(=O)[C@@H](N)Cc1c[nH]c2ccccc12)[C@@H](C)CC)C(=O)N[C@@H](CCCNC(=N)N)C(=O)N[C@@H](Cc1c[nH]c2ccccc12)C(=O)O [compound 69] (H-WRIQIRW-OH)	2.17
CC[C@H](C)[C@H](NC(=O)[C@H](Cc1ccccc1)NC(=O)[C@@H](NC(=O)[C@H](CCCNC(=N)N)NC(=O)[C@@H](N)Cc1c[nH]c2ccccc12)[C@@H](C)CC)C(=O)N[C@@H](CCCNC(=N)N)C(=O)N[C@@H](Cc1c[nH]c2ccccc12)C(=O)O [compound 136] (H-WRIFIRW-OH)	9.13
CC[C@H](C)[C@H](N)C(=O)N[C@@H](Cc1c[nH]c2ccccc12)C(=O)N[C@H](C(=O)N[C@@H](CCCNC(=N)N)C(=O)N[C@@H](CC(C)C)C(=O)N[C@@H](Cc1c[nH]c2ccccc12)C(=O)O)[C@@H](C)CC [compound 50] (H-IWIRLW-OH)	2.12
CC[C@H](C)[C@H](NC(=O)[C@H](C)NC(=O)[C@@H](N)Cc1c[nH]c2ccccc12)C(=O)N[C@@H](CCCNC(=N)N)C(=O)N[C@H](C(=O)N[C@@H](CCCNC(=N)N)C(=O)N[C@@H](Cc1c[nH]c2ccccc12)C(=O)O)[C@@H](C)CC [compound 124] (H-WAIRIRW-OH)	1.94
CC[C@H](C)[C@H](NC(=O)[C@H](CCCNC(=N)N)NC(=O)[C@@H](N)Cc1c[nH]c2ccccc12)C(=O)N[C@@H](Cc1c[nH]c2ccccc12)C(=O)N[C@@H](CC(C)C)C(=O)N[C@@H](CCCNC(=N)N)C(=O)N[C@@H](Cc1ccc(O)cc1)C(=O)N[C@@H](Cc1c[nH]c2ccccc12)C(=O)O [compound 17] (H-WRIWLRYW-OH)	2.32
CC[C@H](C)[C@H](NC(=O)[C@H](Cc1c[nH]c2ccccc12)NC(=O)[C@@H](NC(=O)[C@H](CCCNC(=N)N)NC(=O)[C@@H](N)CC(C)C)[C@@H](C)CC)C(=O)N[C@@H](CCCNC(=N)N)C(=O)N[C@@H](Cc1ccc(O)cc1)C(=O)N[C@@H](CC(C)C)C(=O)O [compound 155] (H-LRIWIRYL-OH)	1.74
CC[C@H](C)[C@H](NC(=O)[C@H](CCCNC(=N)N)NC(=O)[C@@H](NC(=O)[C@@H](N)CCCNC(=N)N)[C@@H](C)CC)C(=O)N[C@@H](Cc1c[nH]c2ccccc12)C(=O)N[C@@H](CC(C)C)C(=O)N[C@@H](Cc1c[nH]c2ccccc12)C(=O)O [compound 26] (H-RIRIWLW-OH)	1.93
CC[C@H](C)[C@H](NC(=O)[C@H](CCCNC(=N)N)NC(=O)[C@@H](NC(=O)[C@H](CCCNC(=N)N)NC(=O)[C@@H](N)CC(C)C)[C@@H](C)CC)C(=O)N[C@@H](CCCNC(=N)N)C(=O)N[C@@H](Cc1c[nH]c2ccccc12)C(=O)O [compound 139] (H-LRIRIRW-OH)	4.31
CC[C@H](C)[C@H](N)C(=O)N[C@@H](Cc1c[nH]c2ccccc12)C(=O)N[C@H](C(=O)N[C@@H](CCCNC(=N)N)C(=O)N[C@@H](Cc1ccc(O)cc1)C(=O)N[C@@H](Cc1c[nH]c2ccccc12)C(=O)O)[C@@H](C)CC [compound 180] (H-IWIRYW-OH)	5.43
